Literature values as cited in patent publication US10021900B2, “Carbohydrate composition and food and beverage producing gradual rise in blood glucose levels” (MATSUTANI CHEMICAL INDUSTRY CO., LTD., priority 2011, dated 2018).

Details: 10% by mass aqueous solution

For `OC[C@H]1O[C@H](OC[C@H]2OC(O)(CO)[C@@H](O)[C@@H]2O)[C@H](O)[C@@H](O)[C@@H]1O` (stereo partly shown) [isomaltulose], the osmotic pressure is given as “about 340 mOSMOL/kg”.
